# Where a name gives a salt, the structure may show the parent alone. Read-outs that look alike come from different tables or passages of the source.
# Tests used:
# human LPA4 receptor = biological target: T1, human LPA4 receptor (Homo sapiens, UniProt Q99677); assay: LPA4/SRE-luc reporter assay in RH7777 cells stably expressing human LPA4 receptor and SRE-Luc2; format: cell-based
# T1 construct: expressed in transfected cells; host or cells: rat hepatocellular carcinoma cell line RH7777, targeted integration at the rRosa26 site
# Procedure: (§1) A stably expressing cell line that constantly expresses the human LPA4 receptor and SRE-Luc2 was established by the gene targeting introduction method of the rat hepatocellular carcinoma cell line RH7777 into rRosa26 site. Similarly, stably expressing cell lines for human LPA1 receptor and SRE-Luc2 were also established. Each cell line was seeded on a collagen-coated dish and maintained in culture, and cells were collected with trypsin EDTA and the required number (5×10^3 cells/well) was seeded on a 96-well plate. After culturing overnight at 37° C., LPA (Avanti Polar Lipids, Inc.) or each Example compound diluted with an assay medium added or not added with BSA was added, and the cells were cultured at 37° C. for 6 hr. Thereafter, a luciferase detection reagent (Bright-Glo, Promega) was added, and the chemiluminescence amount was quantified with an Envision (registered trade mark) multi-label counter (PerkinElmer) and used as an index of agonist activity.
# (§2) The EC50 value of LPA or each Example compound was calculated using the […] Graph pad Prism for Windows ver.5.02 and ver.7.04. % Emax was expressed as the ratio of the maximum response (Emax) of LPA or each Example compound to the maximum response (Emax) of the positive control compound VPC 31144S (N-{(1S)-2-hydroxy-1-[(phosphonooxy)methyl]ethyl}(9Z) cctadec-9-enamide), with the Emax of the positive control compound VPC 31144S as 100%.
# human LPA1 receptor = biological target: T2, human LPA1 receptor (Homo sapiens, UniProt Q92633); assay: LPA1/SRE-luc reporter assay in RH7777 cells stably expressing human LPA1 receptor and SRE-Luc2; format: cell-based
# T2 construct: expressed in transfected cells; host or cells: rat hepatocellular carcinoma cell line RH7777 (made 'similarly' to the LPA4 line)
# Procedure: as §1, §2
# [1] = RH7777, read-out: LPA4/SRE-luc % Emax
# [2] = BSA added, read-out: LPA4/SRE-luc EC50
# [3] = RH7777, BSA added, Emax of positive control VPC 31144S as 100%, read-out: LPA4/SRE-luc % Emax
# [4] = BSA added, read-out: LPA1/SRE-luc EC50
# [5] = BSA not added, read-out: LPA4/SRE-luc EC50
# [6] = RH7777, BSA not added, Emax of positive control VPC 31144S as 100%, read-out: LPA4/SRE-luc % Emax
# [7] = BSA not added, read-out: LPA1/SRE-luc EC50
# T2 sequence (Q92633 whole entry): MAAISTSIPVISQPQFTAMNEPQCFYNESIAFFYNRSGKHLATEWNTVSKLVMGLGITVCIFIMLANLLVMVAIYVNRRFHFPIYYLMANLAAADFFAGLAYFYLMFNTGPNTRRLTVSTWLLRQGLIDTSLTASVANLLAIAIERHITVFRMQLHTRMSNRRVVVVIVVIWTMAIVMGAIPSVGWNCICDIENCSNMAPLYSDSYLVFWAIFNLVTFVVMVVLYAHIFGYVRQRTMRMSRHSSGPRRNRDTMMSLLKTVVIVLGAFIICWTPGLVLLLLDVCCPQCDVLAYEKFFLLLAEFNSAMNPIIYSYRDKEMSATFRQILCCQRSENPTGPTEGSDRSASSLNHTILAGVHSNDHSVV
# T1 sequence (Q99677 whole entry): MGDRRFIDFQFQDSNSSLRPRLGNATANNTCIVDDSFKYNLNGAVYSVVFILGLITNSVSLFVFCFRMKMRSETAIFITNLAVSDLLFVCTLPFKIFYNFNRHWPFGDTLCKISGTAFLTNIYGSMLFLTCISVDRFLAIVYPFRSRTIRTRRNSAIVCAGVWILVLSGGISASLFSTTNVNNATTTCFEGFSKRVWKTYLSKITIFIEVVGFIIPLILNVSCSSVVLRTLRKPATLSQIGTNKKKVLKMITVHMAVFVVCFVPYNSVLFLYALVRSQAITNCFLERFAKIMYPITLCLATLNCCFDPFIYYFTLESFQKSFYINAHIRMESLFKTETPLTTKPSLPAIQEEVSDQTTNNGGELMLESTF
SMILES,EC50 (human LPA4 receptor; [2]) [nM],Emax (human LPA4 receptor; [3]) [%],EC50 (human LPA1 receptor; [4]) [nM],EC50 (human LPA4 receptor; [5]) [nM],Emax (human LPA4 receptor; [6]) [%],EC50 (human LPA1 receptor; [7]) [nM],other results
"CCCCCCCCCCCOc1cccc(-c2ccnc(NC[C@@H](C)OP(O)(O)=S)c2)c1 [Example compound 138, O-[(2R)-1-({4-[3-(Undecyloxy)phenyl]pyridin-2-yl}amino)propan-2-yl] dihydrogen phosphorothioate-ammonium salt]",,,,,,,EC50 (human LPA4 receptor): < 41 nM; Emax (human LPA4 receptor; [1]): 73%; EC50 (human LPA1 receptor): > 10000 nM
"CCCCCCCCCCOc1cccc(CCC(=O)N(CCOP(=O)(O)O)Cc2cccc(OC)c2)c1 [Example compound 95, 2-[{3-[3-(Decyloxy)phenyl]propanoyl}(3-methoxybenzyl)amino]ethyl dihydrogen phosphate ammonium salt]",< 41,136,> 10000,,,,
"CCCCCCc1ccc(CCCCCCCCC(=O)N2CC(OP(=O)(O)O)C2)cc1 [Example compound 118, 1-[9-(4-Hexylphenyl)nonanoyl]azetidin-3-yl dihydrogen phosphate]",< 41,114,> 10000,,,,
"CCCCCCCCCOc1ccc(CCC(=O)N2CC(OP(=O)(O)O)C2)cc1 [Example 1, 1-{3-[4-(Nonyloxy)phenyl]propanoyl}azetidin-3-yl dihydrogen phosphate ammonium salt]",,,,28,119,> 10000,
"CCCCCCCCc1cccc(CCCCCCCC(=O)N2CC(OP(=O)(O)O)C2)c1 [Example compound 43, 1-[8-(3-Octylphenyl)octanoyl]azetidin-3-yl dihydrogen phosphate ammonium salt]",,,,27,86,> 10000,
"CCCCCCCCCCOc1cccc(CCC(=O)N(CCOP(=O)(O)O)Cc2ccncc2)c1 [Example compound 58, 2-[{3-[3-(Decyloxy)phenyl]propanoyl}(pyridin-4-ylmethyl)amino]ethyl dihydrogen phosphate ammonium salt]",,,,< 41,148,> 3000,
"CCCCCCCc1ccc(CCCCC(=O)N2CC(OP(=O)(O)O)C2)cc1 [Example compound 59, 1-[5-(4-Heptylphenyl)pentanoyl]azetidin-3-yl dihydrogen phosphate ammonium salt]",,,,< 41,86,> 10000,
"Cc1ccc(CCc2ccc(CCCC(=O)N3CC[C@@H](OP(=O)(O)O)C3)cc2)cc1 [Example 29, (3R)-1-(4-{4-[2-(4-Methylphenyl)ethyl]phenyl}butanoyl)pyrrolidin-3-yl dihydrogen phosphate ammonium salt]",,,,45,145,> 10000,
"CCCCCCCCCCCOc1cccc(-c2ccnc(N[C@@H]3CCC[C@@H]3OP(=O)(O)O)c2)c1 [Example compound 142, (1S,2R)-2-({4-[3-(Undecyloxy)phenyl]pyridin-2-yl}amino)cyclopentyl dihydrogen phosphate ammonium salt]",43,103,> 10000,,,,
"CCCCCCCCCCCOc1cccc(-c2ccnc(NC[C@@H](C)OP(=O)(O)O)n2)c1 [Example compound 134, (2R)-1-({4-[3-(Undecyloxy)phenyl]pyrimidinyl}amino)propan-2-yl dihydrogen phosphate]",< 41,87,> 10000,,,,
"O=C(CCCCCCCCc1ccc(C2CCCCC2)cc1)N1CC(OP(=O)(O)O)C1 [Example compound 93, 1-[9-(4-Cyclohexylphenyl)nonanoyl]azetidin-3-yl dihydrogen phosphate]",< 41,113,> 10000,,,,
"Cc1ccc(CCCCCCCCCC(=O)N2CC(OP(=O)(O)O)C2)cc1 [Example 10, 1-[10-(4-Methylphenyl)decanoyl]azetidin-3-yl dihydrogen phosphate]",,,,30,,> 10000,Emax (human LPA4 receptor; [1]): 101%
"COc1ccc(CN(CCOP(=O)(O)O)C(=O)CCCCCc2cccc(CCCCC3CCCCC3)c2)cc1 [Example compound 129, 2-[{6-[3-(4-Cyclohexylbutyl)phenyl]hexanoyl}(4-methoxybenzyl)amino]ethyl dihydrogen phosphate ammonium salt]",< 41,120,> 10000,,,,
"CCCCCCCCCCCOc1cccc(-c2ccnc(NC[C@@H](C)OP(=O)(O)O)c2)c1 [Example compound 133, (2R)-1-({4-[3-(Undecyloxy)phenyl]pyridin-2-yl}amino)propan-2-yl dihydrogen phosphate]",< 41,101,> 10000,,,,
"CCc1ccc(CCCCCCCCC(=O)N2CC[C@@H](OP(=O)(O)O)C2)cc1 [Example 24, (3R)-1-[9-(4-Ethylphenyl)nonanoyl]pyrrolidin-3-yl dihydrogen phosphate ammonium salt]",,,,5.6,138,> 10000,
"CCCCCCCCCCOc1cccc(CCC(=O)N(CCOP(=O)(O)O)Cc2ccc(OC)cc2)c1 [Example compound 54, 2-[{3-[3-(Decyloxy)phenyl]propanoyl}(4-methoxybenzyl)amino]ethyl dihydrogen phosphate ammonium salt]",,,,< 41,106,> 10000,
"CCCCCCCCCOc1ccc(CCC(=O)N2CC[C@@H](OP(=O)(O)O)C2)cc1 [Example 20, (3R)-1-{3-[4-(Nonyloxy)phenyl]propanoyl}pyrrolidin-3-yl dihydrogen phosphate ammonium salt]",,,,20,153,> 10000,
"COc1ccc(CN(CCOP(=O)(O)O)C(=O)CCCCc2ccc(OCCc3ccc(OC(F)(F)F)cc3)cc2)cc1 [Example compound 115, 2-{(4-Methoxybenzyl)[5-(4-{2-[4-(trifluoromethoxy)phenyl]ethoxy}phenyl)pentanoyl]amino}ethyl dihydrogen phosphate ammonium salt]",< 41,114,> 10000,,,,
"CCCCCCCCCCOc1cccc(CCC(=O)N(CCCCCO)CCOP(=O)(O)O)c1 [Example compound 50, 2-[{3-[3-(Decyloxy)phenyl]propanoyl}(5-hydroxypentyl)amino]ethyl dihydrogen phosphate ammonium salt]",,,,23,79,> 1000,
"CCCCCCc1ccc(CCCCC(=O)N2CC(OP(=O)(O)O)C2)cc1 [Example 7, 1-[5-(4-Hexylphenyl)pentanoyl]azetidin-3-yl dihydrogen phosphate]",,,,37,125,> 10000,
"CCCCCCCCCCOc1cccc(CCC(=O)N2CC[C@@H](OP(=O)(O)O)C2)c1 [Example 18, (3R)-1-{3-[3-(Decyloxy)phenyl]propanoyl}pyrrolidin-3-yl dihydrogen phosphate ammonium salt]",,,,1.9,122,> 10000,
"CC(C)c1ccc(CCCCCCCCC(=O)N2CC(OP(=O)(O)O)C2)cc1 [Example compound 66, 1 {9-[4-(Propan-2-yl)phenyl]nonanoyl}azetidin-3-yl dihydrogen phosphate]",,,,< 41,280,> 10000,
"CCCCCCCCOc1ccc(CCCC(=O)N2CC(OP(=O)(O)O)C2)cc1 [Example 26, 1-{4-[4-(Octyloxy)phenyl]butanoyl}azetidin-3-yl dihydrogen phosphate]",,,,10,,> 10000,Emax (human LPA4 receptor; [1]): 125%
"CCCc1ccc(CCCCCCCC(=O)N2CC(OP(=O)(O)O)C2)cc1 [Example 15, 1-[8-(4-Propylphenyl)octanoyl]azetidin-3-yl dihydrogen phosphate]",,,,42,75,> 10000,
"CCCc1ccc(CCCCCCCCC(=O)N(CCOP(=O)(O)O)Cc2cncs2)cc1 [Example compound 102, 2-{[9-(4-Propylphenyl)nonanoyl] (1,3-thiazol-5-ylmethyl)amino}ethyl dihydrogen phosphate ammonium salt]",47,121,> 10000,,,,
"CCCCCCCCCCOc1cccc(CCC(=O)N(CCOP(=O)(O)O)CC(C)C)c1 [Example 33, 2-[{3-[3-(Decyloxy)phenyl]propanoyl}(2-methylpropyl)amino]ethyl dihydrogen phosphate ammonium salt]",,,,33,121,> 10000,
"CCCCCCCCCCOc1cccc(CCC(=O)N(CCCCOC)CCOP(=O)(O)O)c1 [Example compound 47, 2-[{3-[3-(Decyloxy)phenyl]propanoyl}(4-methoxybutyl)amino]ethyl dihydrogen phosphate ammonium salt]",,,,46,94,> 10000,

# From patent publication US11802135B2, “Lysophosphatidic acid derivative” (MITSUBISHI TANABE PHARMA CORPORATION, priority 2021, dated 2023)
